Structures can show the parent of a compound that is named as a salt.
What was measured:
Assay type in all cases: cell-based
[1] = system: CWR22Rv1 androgen-independent prostate cancer cells; assay: CellTiter-Glo Luminescent Cell Viability Assay, CWR22Rv1 cells; conditions: 48 hours treatment, % of survival normalized to DMSO control; for viability at 10 µM: CWR22Rv1, compound at 10 μM
Procedure: (§1) Cell viability assays were performed on three representative prostate cancer cell lines (i.e., CWR22Rvl, PC3 and DU145) to determine the effect of treatment with a series of 8-hydroxyquinoline derivatives.
(§2) Cell viability was assessed 48 hours after compound treatment with the CellTiter-Glo® Luminescent Cell Viability Assay (Promega), according to the manufacturer's protocol. Briefly, 5000 cells were plated into 96-well cell culture plates in DMEM supplemented with 10% FBS. After overnight incubation, compounds at indicated concentrations were added and the treatment was maintained for two days. At the end of compound treatment, 5.0 μL of CellTiter-Glo® Reagent was added to each well. Plates were returned to the incubator for 2 hours. Plates were then removed from the incubator and luminescence was measured in a standard luminescence plate reader. The luminescence signal was then used to calculate % of survival normalized to DMSO control treatment.

[2] = system: DU145 androgen-independent prostate cancer cells; assay: CellTiter-Glo Luminescent Cell Viability Assay, DU145 cells; conditions: 48 hours treatment, % of survival normalized to DMSO control; for viability at 2 µM: Homo sapiens, DU-145, compound at 2 μM
Procedure: as §1, §2

[3] = system: PC3 androgen-independent prostate cancer cells; assay: CellTiter-Glo Luminescent Cell Viability Assay, PC3 cells; conditions: 48 hours treatment, % of survival normalized to DMSO control; for viability at 2 µM: Homo sapiens, PC-3, compound at 2 μM
Procedure: as §1, §2

| Compound | viability at 10 µM [1] [%] | viability at 2 µM [2] [%] | viability at 2 µM [3] [%] | % CWR22Rv1 Survival (Compound at 10 μM) [1] [%] | % DU145 Survival (Compound at 2 μM) [2] [%] | % PC3 Survival (Compound at 2 μM) [3] [%] |
| --- | --- | --- | --- | --- | --- | --- |
| CCC(=O)NC(c1ccco1)c1cc([N+](=O)[O-])c2cccnc2c1O (stereo not drawn) [SD70-10, N-(furan-2-yl(8-hydroxy-5-nitroquinolin-7-yl)methyl)propionamide] | 110 | 100 | 93 |  |  |  |
| Oc1c(CN2CCCCC2)ccc2cccnc12 [SD70-20, 7-(piperidin-1-ylmethyl)quinolin-8-ol] | 99 | 88 | 98 |  |  |  |
| CC(=O)NC(c1ccco1)c1cc(Cl)c2cccnc2c1O (stereo not drawn) [SD70-3, N-((5-chloro-8-hydroxyquinolin-7-yl)(furan-2-yl)methyl)acetamide] | 110 | 110 | 88 |  |  |  |
| O=C(NC(c1ccco1)c1cc(Cl)c2cccnc2c1O)c1cccnc1 (stereo not drawn) [SD70-5, N-((5-chloro-8-hydroxyquinolin-7-yl)(furan-2-yl)methyl)nicotinamide] | 94 | 31 | 23 |  |  |  |
| Oc1ccc(CNCCN2CCOCC2)c2cccnc12 [SD70-17, 5-((2-morpholinoethylamino)methyl)quinolin-8-ol] | 7 | 100 | 98 |  |  |  |
| CCC(=O)NC(c1ccc(OC)c(OC)c1)c1cc(Cl)c2cccnc2c1O (stereo not drawn) [SD70-9, N-((5-chloro-8-hydroxyquinolin-7-yl)(3,4-dimethoxyphenyl)methyl)propionamide] | 18 | 10 | 21 |  |  |  |
| Oc1ccc(CCl)c2cccnc12 [SD70-15, 5-(chloromethyl)quinolin-8-ol hydrochloride] | 91 | 100 | 96 |  |  |  |
| Oc1ccc(COCc2ccccc2)c2cccnc12 [SD70-16, 5-(benzyloxymethyl)quinolin-8-ol] | 20 | 19 | 14 |  |  |  |
| N-((8-hydroxyquinolin-7-yl)(4-methoxyphenyl)methyl)isobutyramide isobutyramide [SD70-22] |  |  |  | 18 | 21 | 13 |
| COc1ccc(C(=O)NC(c2ccco2)c2cc(Cl)c3cccnc3c2O)cc1 (stereo not drawn) [SD70-6, N-((5-chloro-8-hydroxyquinolin-7-yl)(furan-2-yl)methyl)-4-methoxybenzamide] | 21 | 50 | 24 |  |  |  |
| Oc1c(CN2CCN(c3ccccn3)CC2)ccc2cccnc12 [SD70-18, 7-((4-(pyridin-2-yl)piperazin-1-yl)methyl)quinolin-8-ol] | 27 | 110 | 125 |  |  |  |
| CCCC(=O)NC(c1ccco1)c1cc(Cl)c2cccnc2c1O (stereo not drawn) [SD70-4, N-((5-chloro-8-hydroxyquinolin-7-yl)(furan-2-yl)methyl)butyramide] | 110 | 29 | 7 |  |  |  |
| CC(C)CCNCc1ccc2cccnc2c1O [SD70-21, 7-((isopentylamino)methyl)quinolin-8-ol] | 93 | 100 | 93 |  |  |  |
| CCC(=O)NC(c1ccco1)c1ccc2cccnc2c1O (stereo not drawn) [SD70-11, N-(furan-2-yl(8-hydroxyquinolin-7-yl)methyl)propionamide] | 16 | 120 | 79 |  |  |  |
| Oc1c(CNCCN2CCOCC2)ccc2cccnc12 [SD70-19, 7-((2-morpholinoethylamino)methyl)quinolin-8-ol] | 107 | 94 | 98 |  |  |  |
| O=C(COc1ccccc1)NC(c1ccco1)c1cc(Cl)c2cccnc2c1O (stereo not drawn) [SD70-7, N-((5-chloro-8-hydroxyquinolin-7-yl)(furan-2-yl)methyl)-2-phenoxyacetamide] | 28 | 21 | 21 |  |  |  |
| COc1c(C(NC(=O)C(C)C)c2ccco2)ccc2cccnc12 (stereo not drawn) [SD70-23, N-(furan-2-yl(8-methoxyquinolin-7-yl)methyl)isobutyramide] | 96 |  |  |  |  |  |
| CC(C)C(=O)NC(c1ccco1)c1ccc2cccnc2c1O (stereo not drawn) [SD70, N-(furan-2-yl(8-hydroxyquinolin-7-yl)methyl)isobutyramide] | 9 | 26 | 14 |  |  |  |
| CC(C)C(=O)NC(c1ccco1)c1cc(Cl)c2cccnc2c1O (stereo not drawn) [SD70-2, N-((5-chloro-8-hydroxyquinolin-7-yl)(furan-2-yl)methyl)isobutyramide] | 100 | 32 | 9 |  |  |  |
| CCC(=O)NC(c1ccco1)c1cc(Cl)c2cccnc2c1O (stereo not drawn) [SD70-1, N-((5-chloro-8-hydroxyquinolin-7-yl)(furan-2-yl)methyl)propionamide] | 93 | 87 | 47 |  |  |  |
| CCC(=O)NC(c1ccccc1OC)c1cc(Cl)c2cccnc2c1O (stereo not drawn) [SD70-8, N-((5-chloro-8-hydroxyquinolin-7-yl)(2-methoxyphenyl)methyl)propionamide] | 10 | 42 | 61 |  |  |  |
| CC(C)C(=O)NC(c1ccc([N+](=O)[O-])cc1)c1ccc2cccnc2c1O (stereo not drawn) [SD70-25, N-((8-hydroxyquinolin-7-yl)(4-nitrophenyl)methyl)isobutyramide] | 16 |  |  |  |  |  |
| COc1ccc(C(NC(=O)C(C)C)c2ccc3cccnc3c2O)cc1OC (stereo not drawn) [SD70-24, N-((3,4-dimethoxyphenyl)(8-hydroxyquinolin-7-yl)methyl)isobutyramide] | 12 |  |  |  |  |  |

From patent US20170044107A1, “Inhibitors of JMJD2C as Anticancer Agents” (The J. David Gladstone Institutes, priority 2014, published 2017)
